From patent US8501946B2 (Glaxo Group Limited, priority 2009, dated 2013)

How the values were obtained:
[1] = target: T1, human recombinant P2X7 receptors (Homo sapiens, UniProt Q99572); assay: Ethidium Accumulation Assay 2 (HEK293 cells, ATP-induced ethidium uptake); type: cell-based; conditions: HEK293 cells expressing human P2X7; sometimes mean of more than one measurement; read-out: Assay 2 (antagonist pIC50 for blocking ATP responses) (converted)
T1 construct: expressed in transfected cells
T1 sequence (Q99572 1-595): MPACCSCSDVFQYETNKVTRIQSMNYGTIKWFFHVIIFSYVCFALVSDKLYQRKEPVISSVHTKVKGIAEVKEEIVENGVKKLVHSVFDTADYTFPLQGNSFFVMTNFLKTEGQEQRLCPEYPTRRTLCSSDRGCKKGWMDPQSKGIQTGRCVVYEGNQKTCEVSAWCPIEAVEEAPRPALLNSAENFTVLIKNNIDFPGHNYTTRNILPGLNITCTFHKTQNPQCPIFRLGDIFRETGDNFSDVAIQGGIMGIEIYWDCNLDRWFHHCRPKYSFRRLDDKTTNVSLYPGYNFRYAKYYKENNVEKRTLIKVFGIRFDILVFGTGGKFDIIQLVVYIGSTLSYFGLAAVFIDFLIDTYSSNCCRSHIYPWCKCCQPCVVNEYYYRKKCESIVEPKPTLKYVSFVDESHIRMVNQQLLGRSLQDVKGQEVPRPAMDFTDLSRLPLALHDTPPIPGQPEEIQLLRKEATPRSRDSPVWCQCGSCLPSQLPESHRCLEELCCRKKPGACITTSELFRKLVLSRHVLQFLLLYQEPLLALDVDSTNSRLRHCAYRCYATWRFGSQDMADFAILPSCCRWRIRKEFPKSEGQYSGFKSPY
In short: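 Stably transfected HEK293 cells expressing human P2X7 were preincubated with test antagonist 30 min at room temperature (19-21° C.), then stimulated with ATP solution (50 μM). Ethidium uptake was measured, and pIC50 values for block of ATP responses were derived by iterative curve fitting.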

[2] = target: T1, human recombinant P2X7 receptors; assay: Ethidium Accumulation Assay 1 (HEK293 cells, ATP-induced ethidium uptake); type: cell-based; conditions: HEK293 cells expressing human P2X7; 1 mM ATP; sometimes mean of more than one measurement; read-out: Assay 1 (antagonist pIC50 for blocking ATP responses) (converted)

Cc1nnc2n1CCN(C(=O)c1cccc(C(F)(F)F)c1Cl)C2 [Example 15, 7-{[2-Chloro-3-(trifluoromethyl)phenyl]carbonyl}-3-methyl-5,6,7,8-tetrahydro[1,2,4]triazolo[4,3-a]pyrazine]
IC50 [1]: < 501 nM
IC50 [2]: < 100 nM

CCc1nnc2n1CCN(C(=O)c1cccc(C(F)(F)F)c1Cl)C2 [Example 4, 7-{[2-chloro-3-(trifluoromethyl)phenyl]carbonyl}-3-ethyl-5,6,7,8-tetrahydro[1,2,4]triazolo [4,3-a]pyrazine]
IC50 [1]: < 100 nM
IC50 [2]: < 100 nM

O=C(c1ccc(F)cc1Cl)N1CCn2c(nnc2-c2cccc(Cl)c2)C1 [Example 126, 7-[(2-chloro-4-fluorophenyl)carbonyl]-3-(3-chlorophenyl)-5,6,7,8-tetrahydro[1,2,4]triazolo[4,3-a]pyrazine]
IC50 [1]: < 100 nM
IC50 [2]: < 100 nM
